{"source": "patent US20110104702A1", "about": "“Methods for Predicting Tumor Response to Chemotherapy and Selection of Tumor Treatment” (NATIONAL UNIVERSITY HOSPITAL, priority 2008, published 2011)", "key": {"[1]": {"system": "cT3-T4 breast tumors", "assay": "Independent dataset: four cycles of pre-operative single agent docetaxel, pathological response", "type": "in vivo, human", "excerpt": "Next, we applied the 90-supergene panels for pathological response to the original cohort using unsupervised hierarchical clustering, and found, expectedly, the predictors to be highly accurate; the division yielded groups with different PFS, though not statistically significant (Table 1). To validate the pathological response signatures further, we applied them, using SVM, in an independent set of 18 patients treated with four cycles of neoadjuvant three-weekly single agent docetaxel prior to surgery, who had tumor biopsy before and 3 weeks after one chemotherapy cycle. Pathological response definition was similar to our original cohort. Consistent with the findings for the PFS predictors, T2 outperformed T1 signatures, with the AUC of ROC being 0.631 (95% CI 0.350-0.912) for T2 compared to 0.462 (95% CI 0.190-0.733) and 0.446 (95% Cl 0.161-0.731) for TΔ and T1 respectively. T2 signatures accurately identified 77% of poor pathological responders, compared to 54% for both T1 and TΔ (FIG. 2c-d).\nAn independent dataset comprising of 18 breast cancer patients treated with pre-operative chemotherapy followed by surgery as part of another clinical protocol at our institution was used to validate the gene expression signatures that predict for pathological response. Validation was performed using SVM. In brief, patients from this independent dataset had cT3-T4 breast tumors and were treated with four cycles of pre-operative single agent docetaxel every three weeks. […] Patients underwent lumpectomy or mastectomy and axillary clearance after chemotherapy, and were classified as good (5/18) and poor (13/18) pathological responders using the same criteria as described in our primary cohort. This dataset was not used to validate the PFS signatures as the median follow-up was short at 18.5 months, and only 5/18 had progressed at the time of analysis."}, "[2]": {"system": "locally advanced breast cancers", "details": "weekly doxorubicin 14 mg/m^2 for 16 weeks, n=20; cited from earlier work"}, "[3]": {"details": "four cycles of docetaxel every three weeks, then surgery, n=18"}}, "data": [{"smiles": "CC(=O)O[C@@]12CO[C@@H]1C[C@H](O)[C@@]1(C)C(=O)[C@H](O)C3=C(C)[C@@H](OC(=O)[C@H](O)[C@@H](NC(=O)OC(C)(C)C)c4ccccc4)C[C@@](O)([C@@H](OC(=O)c4ccccc4)[C@H]21)C3(C)C", "note": "[docetaxel]", "values": [{"measurement": "good pathological responders", "setting": "[1]; [3]", "value": "5/18"}, {"measurement": "poor pathological responders", "setting": "[1]; [3]", "value": "13/18"}, {"measurement": "patients progressed at the time of analysis", "setting": "[1]; median follow-up 18.5 months", "value": "5/18"}]}, {"smiles": "COc1cccc2c1C(=O)c1c(O)c3c(c(O)c1C2=O)C[C@@](O)(C(=O)CO)C[C@@H]3O[C@H]1C[C@H](N)[C@H](O)[C@H](C)O1", "note": "[doxorubicin]", "values": [{"measurement": "median relapse-free survival", "setting": "[2]", "value": 25, "unit": "months"}, {"measurement": "patients relapsed", "setting": "[2]", "value": "12/20"}]}]}
